Values quoted from earlier work in patent publication US20120283306A1, “MOUSE MODEL FOR AVM” (Georgia Health Sciences University, priority 2011, published 2012).

Settings: mouse, in vivo

## Cc1ccc(-c2cc(C(F)(F)F)nn2-c2ccc(S(N)(=O)=O)cc2)cc1 [celecoxib]
  tolerability in mice: well tolerated
